In patent US20200399238A1, “THERAPEUTIC AURONES” (MIDDLE TENNESSEE STATE UNIVERSITY, priority 2016, published 2020):

Test system: TNFα mRNA
Assay: Quantitative RT-PCR of TNF-α transcription, THP-1
Type: cell-based, human
Details: 80 μM pre-treatment, LPS 4 h, differentiated THP-1
Method: Transcription of TNF-α (NM 000594) and beta-2-microglobin, 132M (NM 004048), in 2.5×10^5 PMA-differentiated THP1 cells was investigated in cells without treatment, stimulated with […] Salmonella LPS, or pretreated for 1 hour with 1 μM dexamethasone or 80 μM aurone 1 followed by 4 hours of incubation with 20 ng/ml LPS. Total RNA was purified after 4 hours of LPS stimulation using the Maxwell 16 LEV simplyRNA Tissue Kit (Promega, WI, USA) per manufacturer's instructions (Jeffries, Kiss et al. 2014). Total RNA concentrations and the 260/280 nm ratios of each RNA sample were assessed using a NanoDrop 2000 UV-Vis spectrophotometer (Thermo Fisher Scientific, MA, USA). SYBR® FAST One-step qRT-PCR (KAPA Biosystems, MA, USA) was used to examine gene transcription after reaction optimization.
QuantiTect® Primer Assay TNF (QT01079561) and B2M (Q300088935) primer (Qiagen, CA, USA) optimization studies, including melt curve analyses to confirm primer specificity and efficiency, were conducted to find appropriate running conditions (Fajardy, Moitrot et al. 2009). Briefly, the optimized conditions were 1 ng of total RNA added to 20 μl of reaction including 150 nM of forward and reverse primers. […] The fold change was calculated by using 2^−ΔΔct normalized to LPS alone (Schmittgen and Livak 2008).

O=C1/C(=C/c2ccc(CO)o2)Oc2ccccc21 [aurone 1]
reduction of TNFα mRNA levels: 49%
